According to patent US9914750B2, “Synthetic peptides and peptide mimetics” (University of Louisville Research Foundation, priority 2007, dated 2018):
“Also recorded” adds a separate entry of the source. Read-outs that look alike come from different tables or passages of the source. No end group written: not given here.

Legend:
sheep red blood cells = experiment: Hemagglutination assay; type: cell-based; settings: PBS, absence of serum, 2 h
Method: FIG. 22: Hemagglutination of sheep red blood cells. RBCs were washed in PBS and incubated for 2 h in microtiter plates in PBS±5% fetal calf serum. Peptide concentrations were 83 μg/ml. The microtiter plate was imaged. Agglutinated red blood cells form a wide mat of cells, while non-agglutinated cells form a button shaped pellet.
Briefly, unmodified sheep erythrocytes (Cappel, M P Biomedicals, Irvine, Calif.) were washed in PBS and suspended at 1% in PBS. Diluted erythrocytes and 20 μg/ml of each peptide in PBS were mixed in polypropylene microtiter plates (120 μl per well) and incubated for 2 h at 35° C. The plates were imaged on a Kodak Image station.

P. aeruginosa = experiment: Antibacterial activity in vivo, Romaine lettuce infection model; set-up: species or system Pseudomonas aeruginosa; settings: 200 μg/ml peptide injected with bacteria, scored after 2-3 days
Method: FIG. 4: Antibacterial activity in vivo. Romaine lettuce leaves were injected with P. aeruginosa (10^8 cells/nil) in the presence or absence of 200 μg/ml of antibacterial peptides. After 2-3 days incubation the injection sites were scored for infection on a scale of 0-100% relative to the no-bacteria (0% infection) and bacteria-only controls (PAO1) (100%). Data are from six independent experiments and are shown as mean±SEM, N=4−12. *) P<0.04, **) P<0.003.
Romaine lettuce heads were purchased from local grocery stores. Outer leaves were removed and undamaged leaves were selected. The leaves were rinsed in 0.1% bleach and incubated in plastic containers on filter paper moistened with 10 mM MgSO4. Overnight cultures of P. aeruginosa were diluted to 10^8 CFU/ml in 10 mM MgSO4 and supplemented with 200 μg/ml of each peptide. Ten μl (10^6 CFU, 2 μg peptide) were injected into the midrib of each leaf using a micro pipetter. Blank controls were incubated with buffer only, and bacterial controls were incubated without peptide. The plastic trays were covered and incubated at 35° C. Leaves were inspected daily for browning around the injection site or along the midrib. Generally rotting or moldy leaves were discarded. Infection was scored on a scale from 0% to 100% relative to blank controls and bacterial controls, respectively.

[1] = system: P. aeruginosa with RAW 264.7 macrophage cells; experiment: Gentamicin protection assay (phagocytosis / clearance by macrophages); type: cell-based, mouse; settings: 100 μg/ml peptide
Method: FIG. 13. Phagocytosis of P. aeruginosa: Bacteria (5×10^8 CFU/ml) were incubated with buffer (Blk), GK-7 or GL-13 (100 μg/ml) for 1 h and added to RAW cells for 2 h. The RAW cells were washed and incubated with […] for 90 min. The cells were lysed in 1% Tween-20 and the diluted contents plated on agar. CFU were enumerated and expressed relative to the mean of the blank in each of three experiments (N=9) *) P=0.025.
Overnight cultures of P. aeruginosa were diluted 1:5 in PBS and incubated for 1 h at room temperature with PSP peptides (100 μg/ml) or with an equivalent amount of 0.01% acetic acid. Aliquots (500 μl) of these samples were added to RAW 264.7 macrophage cells cultured in 24-well plates and incubated for 2 h at 37° C., 5% CO2. The cells were washed in DMEM and then incubated with DMEM containing 200 μg/ml Gentamicin for 90 min at 37° C., 5% CO2. The cells were again washed with DMEM and the incubated with 200 μl/well of PBS containing 1% Tween 20 for 5 min at room temperature. The cell extracts were diluted in LB and plated on LB agar plates. CFU were enumerated after overnight incubation at 37° C.

RAW 264.7 cells [2] = experiment: Assay for inflammation: TNFα secretion with peptides alone (ELISA); type: cell-based, mouse
Method: (§1) FIGS. 15A and 15B. FIG. 15A. Inhibition of endotoxin-stimulated TNFα secretion. RAW 264.7 macrophage cells were stimulated with 100 ng/ml LPS in the presence or absence of the PSP-derived peptides GK7, KL11 or GL13 (200 μg/ml). Polymyxin B (PMX) was used as a positive control. Further controls consisted of peptides alone without LPS stimulation. TNFα secretion was analyzed by ELISA of the RAW culture medium. The data are from triplicate RAW culture dishes for each condition. *) different from LPS alone P<0.03, **) P<0.0002. FIG. 15B. Dose response curve for the inhibition of LPS-induced TNFα secretion by GL-13.
To determine if the PSP peptides cause an inflammatory response in RAW 264.7 cells, the cells were incubated with each peptide for 24 h and TNFα secretion was quantitated by ELISA.
The vaccine adjuvant monophosphoryl lipid A (MPLA) a low-toxicity derivative of LPS was used to stimulate RAW cells in the presence or absence of PSP peptides (200 μg/ml) or the anti-inflammatory peptide polymyxin B (PMX). Control samples were incubated with the peptides alone.

P. aeruginosa PAO1 = experiment: Biofilm formation / bacterial adhesion assay, PVC microtiter plates, crystal violet; type: cell-based, Pseudomonas aeruginosa; settings: 50 μg/ml, 6 h, aerobic
Method: FIGS. 7A and 7B: PSP-peptides inhibit biofilm formation. P. aeruginosa PAO1 (overnight cultures, diluted 1:100 were incubated with 50 μg/ml of each peptide (LL37, GK7, GL13, KL11) or lysozyme for 6 h under aerobic (FIG. 7A) or reduced oxygen (anaerobic) (FIG. 7B) conditions. The OD 570 (growth) was determined and the attached cells were then quantitated by staining with crystal violet (biofilm). Growth and biofilm values were normalized against the mean of samples without peptides (HOAc) and expressed as mean±SEM. The data in panel A are from three independent experiments, N=22−24. The data in panel B are from two independent experiments, N=16. Lysozyme (Lyz) data are from a single experiment, N=8. *) different from Growth, P<0.002
(§2) Overnight cultures of P. aeruginosa PAO1 were diluted 1:100 in MHB and 100 μl/well were incubated with 5 μl of LL-37, GK-7, GL-13, KL-11 or lysozyme (1 mg/ml) in PVC microtiter plates. The plates were incubated for 6 h at 32° C. under aerobic or reduced oxygen conditions. Bacterial growth was quantitated spectrophotometrically at 570 nm. Twenty-five μl of 1% crystal violet in dH2O was added to each well and incubated 20 min at room temperature. The wells were emptied and washed three times in dH2O and then incubated for 30 min with 200 μl of 95% ethanol. The OD at 570 nm was determined as a measure of biofilm formation. Growth and biofilm values were normalized against the mean of samples incubated with 0.01% acetic acid without peptides.
as §2, with “μl of the bacterial suspension was mixed” for “μl/well were incubated”, “50 μg/ml” for “5 μl”, “lysozyme” for “lysozyme (1 mg/ml)”

[3] = preliminary results; mice I.P. injection
RAW 264.7 cells [4] = experiment: Cell death assay, trypan blue; type: cell-based, mouse; settings: 200 μg/ml, 24 h
Method: FIG. 21: RAW Cell Viability. RAW 264.7 cells were incubated with 200 μg/ml of PSP peptides for 24 h. At the end of the incubation period the cells were stained with trypan blue and photographed in the light microscope. No significant cell death was detected with any of the peptides.
The inventors have used three different assays for analysis of cytotoxicity in mammalian cells: trypan blue exclusion, […], and ATP production. Experiments have been performed with rat pituitary GH4C1 cells and mouse RAW 264.7 cells. The cells were incubated with PSP peptides for 24 h followed by staining with trypan blue to identify permeabilized and dead cells. […] Clear cytotoxicity was noted when the cells were incubated with LPS.
RAW 264.7 cells were incubated with 200 μg/ml of PSP peptides for 24 h. At the end of the incubation period the cells were stained with trypan blue and photographed in the light microscope. No significant cell death was detected with any of the peptides (FIG. 21).

C57BL/6 mice = experiment: LPS sepsis model, D-galactosamine sensitized mice; type: in vivo
Method: FIG. 18. GL-13 Protects Mice in an LPS Sepsis Model. C57BL/6 mice were sensitized with D-galactosamine and injected with 100 ng/mouse (50 μg/kg) of P. aeruginosa LPS that had been preincubated for 1 h RT with or without 100 μg/mouse of GL-13. Controls received LPS and 0.9% saline. […] The results are from two independent experiments.
C57BL/6 mice were sensitized with D-galactosamine and injected with 100 ng/mouse (50 μg/kg) of P. aeruginosa LPS that had been preincubated for 1 h RT with or without 100 μg/mouse of GL-13 (FIG. 18). Controls received LPS and 0.9% saline. […] The results are from two independent experiments.

[5] = system: LPS-binding protein (LBP); experiment: Inhibition of LPS binding to LPS-binding protein (ELISA)
Method: Analysis of the PSP sequence indicated three possible regions of biological activity. Initially, three peptides corresponding to the PSP sequence in these regions were designed and used in these studies. The initial step in the inflammatory cascade is the binding of LPS to LPS-binding protein. This binding was inhibited by preincubation of LPS with each of the three peptides. […] The binding of LPS to LPB was analyzed to ELISA. 0% inhibition (100% binding) was determined in the absence of inhibitors while 100% inhibition was determined in the presence of the inhibitor polymyxin B. The inhibition of each peptide is determined relative to the effect of polymyxin B.

[6] = system: RAW 264.7 macrophage cells; experiment: LPS-induced TNFα secretion (ELISA); type: cell-based, mouse; settings: P. aeruginosa LPS
Method: as §1
In the present experiments, the redesigned PSP peptides (GL13, KL11) were tested for their effect on TNFα secretion and compared to GK7.

Row | Substance | hemagglutination (words) (sheep red blood cells) | infection of lettuce leaves (P. aeruginosa) | bacterial clearance / phagocytosis [1] | TNFα secretion with peptide alone (RAW 264.7 cells [2]) | bacterial growth in biofilm/adhesion assay (P. aeruginosa PAO1) | biofilm formation / adhesion (P. aeruginosa PAO1) | toxicity [3] | hemagglutination (words) (sheep red blood cells; listed as GL-13-NH2) | cell death of RAW 264.7 macrophages, trypan blue (RAW 264.7 cells [4]) | lethality after intra-peritoneal injection (C57BL/6 mice) | effect on LPS binding to LBP [5] | TNFα secretion with peptide alone (RAW 264.7 cells [2]; no LPS stimulation) | inhibition of LPS-induced TNFα secretion [6]
1 | GQIINLK [GK7, GQIINLK] | did not cause hemagglutination | neither GK-7 nor LL37 showed a significant effect on infection | had no effect on clearance | small increase in TNFα secretion | affected neither growth nor adhesion | affected neither growth nor adhesion | – | – | – | – | – | – | –
2 | GQIINLKASLDLL-NH2 [GL13-NH2, GQIINLKASLDLL-(CONH2)] | caused passive hemagglutination | – | – | did not stimulate TNFα secretion | – | – | low toxicity | caused hemagglutination | did not stimulate TNFα secretion or cause macrophage cell death; also recorded: did not cause cell death; also recorded: not cytotoxic to macrophages | did not cause lethality | – | – | –
3 | polymyxin B [reference compound] | did not cause hemagglutination | – | – | – | – | – | – | – | – | – | Strong inhibition | exhibited toxicity to RAW cells, as evidenced by increased TNFα release | about 50%
